Entries after “also recorded” stand apart in the source; their conditions may differ.

In this assay the test system is human iPSC lines. Put plainly: Cell painting assay (image-based cell phenotyping) on a panel of human iPSC lines from different donors. Conditions: 24 hrs; for UMAP embedding of cell painting features: cluster: panel of HipSci human iPSC lines, clusters: 1 DMSO and weak responders, 2 Atorvastatin, Simvastatin, Fluphenazine, 3 Afatinib, Erlotinib, Everolimus and Rapamycin, 4 DNA damaging agents and topoisomerase inhibitors, 5 non-microtubule targeting cytotoxics, 6 Microtubule polymerization effectors; for Changes of features in the cell nucleus across cell lines: etoposide 1.7 μM, irinotecan 5 μM, nuclear painting probes; for Response to drug in UMAP embedding, cell lines paim3 and pelm1: paim3 and pelm1 lines (FIG. 7 legend prints pelm3); for Uniformity or variation of response between human iPSC lines in UMAP embedding: panel of human iPSC lines from different donors, concentration of Table 2 (5 μM; fenbendazole 3.34 μM). On the procedure: 384-well tissue culture plates (CellCarrier-384 Ultra Microplates, Perkin Elmer 6057300) were coated with human plasma fibronectin (Merck Millipore FC010) at a concentration of 5 μg/cm^2. Cells were passaged as described above with TrypLE Select, counted and seeded on the fibronectin coated wells at a concentration of 3×10^4/cm^2. Cell line plating was in rows, with three wells per condition for each cell line. Cells were incubated for 24 hrs prior to drug treatment, followed by a further 24 hrs incubation before final fixation and staining and high content imaging. Antibody staining of a separate 384-well plate at 48 hrs confirmed that pluripotency was maintained at 48 hrs.
All fixation, permeabilisation and immunostaining were performed at room temperature. Paraformaldehyde 8% in PBS (PFA, Sigma F8775) was added to an equal volume of medium for a final concentration of 4% and incubated for 15 min. Fixed cells were washed in PBS and permeabilised with 0.1% v/v Triton-X100 (Sigma) for 15 min. Following permeabilisation, cells were washed in TBS and stained with DAPI (Thermo Fisher D1306), SYTO 14 (Thermo Fisher S7576), Concanavalin A (Thermo Fisher C11252), Phalloidin Alexa (Thermo Fisher A12381), and WGA (Thermo Fisher W11262) for 1 hr. Mitotracker (Thermo Fisher M22426) staining was performed in live cells with a 30 min incubation at 37° C. prior to fixation. Cell fixation, permeabilisation, staining and washing steps were performed using automated liquid handling systems (405 plate washer, BioTek—Tempest, Formulatrix).
Drug dosing on 384-well plates was performed using an Echo acoustic liquid handler and corresponding software (Labcyte). Screened compounds were selected from the appropriate chemical library plates containing Cloud library (Enamine) and NPSC Control library. For etoposide drug dosing was performed at 1.7 μM. […]
All imaging data were collected on an InCell 2200 high content imager, with a 20× lens and a Quad2 multichroic mirror (GE, Issaquah, WA).
Raw images were imported into OMERO Plus (Glencoe Software, Inc., (9)) and then processed using a custom pipeline in CellProfiler (8) which segmented nuclei, cytoplasm, golgi and cortical protrusions and calculated a range of defined features. All further steps were executed using the Pandas Python library (10). Features for each plate were normalised by the median of features in DMSO control for that plate. Features whose coefficient of variation was greater than 0.50 were removed from further analysis (typically these were Zernike Phase features). We further removed all features with |Spearman coefficient|>0.98. Z-normalised data were then visualised using principal component analysis (PCA) and Uniform Manifold Approximation and Projection (UMAP (11)). For PCA, we calculated the first 15 principal components and variance included in the first two principal components was 77.1%. UMAP parameters were n_neighbours=15, mindist=0.01 and a cosine metric for scaling distance between points. GO enrichment analysis was carried out using WebGestalt (WEB-based Gene SeT AnaLysis Toolkit) (12)
We next used a selection of human iPSCs from the HipSci cohort to test our ability to detect differential effects of FDA-approved drugs, using an image-based cell phenotyping assay. All selected human iPSC lines were previously subjected to whole genome sequencing (https://www.hipsci.org) and the genome data are publicly available. Cells from selected human iPSC lines (Table 1), were grown in 384 well plates, treated with selected compounds (drugs and concentrations used are shown in Table 2), for 24 hrs, then fixed and stained with cell painting markers (see Materials and Methods). Images were recorded in an automated, plate-based imager, then imported into OMERO (9). Images were segmented with respect to the features, ‘nuclei’, ‘cytoplasm’, ‘Golgi’ and ‘protrusions’, using a custom CellProfiler pipeline (13) and image features were then calculated (˜300 features per cell compartment). […]

With `CO[C@H]1C[C@@H]2CC[C@@H](C)[C@@](O)(O2)C(=O)C(=O)N2CCCC[C@H]2C(=O)O[C@H]([C@H](C)C[C@@H]2CC[C@@H](OCCO)[C@H](OC)C2)CC(=O)[C@H](C)/C=C(\C)[C@@H](O)[C@@H](OC)C(=O)[C@H](C)C[C@H](C)/C=C/C=C/C=C/1C` [Everolimus], the “UMAP embedding of cell painting features: cluster” value (5 μM) is reported as “cluster 3”. As for `CCc1c2c(nc3ccc(OC(=O)N4CCC(N5CCCCC5)CC4)cc13)-c1cc3c(c(=O)n1C2)COC(=O)[C@]3(O)CC` [Irinotecan], the “Changes of features in the cell nucleus across cell lines” value is reported as “cause similar changes in multiple cell lines”. Turning to `C#Cc1cccc(Nc2ncnc3cc(OCCOC)c(OCCOC)cc23)c1` [Erlotinib], the “Uniformity or variation of response between human iPSC lines in UMAP embedding” value (“Uniformity or variation” for short) is given as “differential response of some lines”. Also, the “Response to drug in UMAP embedding, all other / majority of human iPSC lines” value (human iPSC lines other than paim3 and pelm1, 5 μM) is “resembles rapamycin and everolimus; also recorded: clustered with rapamycin and everolimus”. Besides, the “Response to drug in UMAP embedding, cell lines paim3 and pelm1” value (5 μM) is “afatinib cluster”. Also, the “Response to drug in UMAP embedding, cell lines paim3 and pelm1” value (5 μM, listed as erlotinib) was “clustered with afatinib”. Besides, the “Response to drug in UMAP embedding, cell line voce2” value (voce2 line (along with the majority of hiPSCs), 5 μM, FIG. 7) is “Erlotinib cluster”. For the same molecule, the “Response to drug in UMAP embedding, cell line zaie1” value (zaie1 line, 5 μM, FIG. 7) is “weak responders group”. As to `CC(C)c1c(C(=O)Nc2ccccc2)c(-c2ccccc2)c(-c2ccc(F)cc2)n1CC[C@@H](O)C[C@@H](O)CC(=O)O` [Atorvastatin], the “Uniformity or variation” value is recorded as “tight clustering in UMAP embedding”. Moreover, under “all cell lines, before Z normalization, 5 μM, FIG. 5A”, the “Magnitude of response: heatmap of deviations of all features from DMSO” value is recorded as “the magnitude of the responses differ between the different cell lines”. Also, the “UMAP embedding of cell painting features: cluster” value (5 μM) is on record as “cluster 2”. With `COc1cc([C@@H]2c3cc4c(cc3[C@@H](O[C@@H]3O[C@@H]5CO[C@@H](C)O[C@H]5[C@H](O)[C@H]3O)[C@H]3COC(=O)[C@H]23)OCO4)cc(OC)c1O` [Etoposide], the “Changes of features in the cell nucleus across cell lines” value is given as “cause similar changes in multiple cell lines”. As to `COC(=O)Nc1nc2ccc(Sc3ccccc3)cc2[nH]1` [Fenbendazole], the “Uniformity or variation” value is on record as “splitting of clusters”.

In the case of `O=c1[nH]cc(F)c(=O)[nH]1` [5-FU], the “Uniformity or variation” value is recorded as “Most cells responded to 5-FU (cluster 1, red, FIG. 3A), but several showed a response indistinguishable from DMSO”.

With `O=C(CCCCCCC(=O)Nc1ccccc1)NO` [Vorinostat], the “Uniformity or variation” value is on record as “splitting of clusters”.

Source of the values: US20240125770A1, “CELL ANALYSIS” (University of Dundee, priority 2021, published 2024).
